Measured values from US20080267888A1, “Heterocyclic Derivatives” (priority 2005, published 2008).

Columns and labels:
[1] = test system: Streptozotocin induced diabetic mice; assay: Antidiabetic activity in streptozotocin induced diabetic mice; type: in vivo, Swiss albino mice; settings: plasma, 50 mg/kg oral for 7 days, female mice, vs control group
Protocol: Antidiabetic Activity in Streptozotocin Induced Diabetic Mice
Female Swiss albino mice, at the age of 10 weeks were used in the study. Diabetes was induced in the animals by injecting streptozotocin by i.p. route at a dose of 200-mg/kg-body weight. 48 hours after streptozotocin administration, the animals were kept fasting for 6 hours. Subsequently blood was collected, plasma separated and the glucose was estimated. Animals showing greater than 200 mg/dl glucose levels were considered as diabetic and these animals were randomly distributed into various groups. The compounds 2 listed in the table 3 were administered at a dose of 50-mg/kg body weight by oral route for 7 days. Later the animals were fasted for 6 hours, the blood was collected and the plasma was separated. Biochemical estimations like glucose, cholesterol and triglycerides were carried out using the plasma. The effect of the compounds mentioned in the table was expressed in terms of percentage reduction in biochemical values as compared to the control group.

DPP IV = target: T1, DPP IV (Homo sapiens, UniProt P27487); assay: DPP IV assay with human plasma as source of DPP IV; type: biochemical; settings: 1 hr incubation, substrate H-gly-pro AMC, vs vehicle control
T1 construct: using human plasma as a source of DPP IV; from tissue; host or cells: human plasma
T1 sequence (P27487 39-766 limits assumed): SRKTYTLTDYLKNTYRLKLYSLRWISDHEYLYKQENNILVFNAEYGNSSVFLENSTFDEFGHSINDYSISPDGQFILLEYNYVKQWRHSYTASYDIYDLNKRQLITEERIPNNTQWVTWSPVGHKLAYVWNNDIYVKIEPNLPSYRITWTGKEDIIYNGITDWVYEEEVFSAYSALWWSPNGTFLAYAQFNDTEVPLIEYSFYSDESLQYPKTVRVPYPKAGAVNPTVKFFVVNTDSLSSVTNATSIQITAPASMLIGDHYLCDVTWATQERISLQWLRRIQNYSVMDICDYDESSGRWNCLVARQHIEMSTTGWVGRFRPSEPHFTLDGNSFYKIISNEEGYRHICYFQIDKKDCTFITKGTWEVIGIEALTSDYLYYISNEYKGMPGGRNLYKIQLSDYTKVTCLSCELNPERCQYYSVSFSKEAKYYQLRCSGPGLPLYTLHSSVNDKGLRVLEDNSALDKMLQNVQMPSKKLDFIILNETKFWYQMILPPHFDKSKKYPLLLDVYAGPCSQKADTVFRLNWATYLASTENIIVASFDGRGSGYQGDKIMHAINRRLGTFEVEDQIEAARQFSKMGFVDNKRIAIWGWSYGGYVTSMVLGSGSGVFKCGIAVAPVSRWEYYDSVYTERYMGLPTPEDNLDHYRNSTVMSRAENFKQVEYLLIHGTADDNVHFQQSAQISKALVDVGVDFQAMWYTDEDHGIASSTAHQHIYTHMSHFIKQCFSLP
Protocol: DPP IV assay is carried by using human plasma as a source of DPP IV. The compounds were incubated at a concentration of 1 and 10 μM in an assay buffer containing the DPP IV enzyme for 1 hr, and then the substrate H-gly-pro AMC was added and further incubated for 20 minutes. Subsequently the reaction was stopped on addition of 25% glacial acetic acid. The plates were read in a spectrofluorimeter to get RFU on setting the excitation wavelength of 360 nm and emission wavelength of 460 nm. The percentage inhibition is calculated as compared to the vehicle control.

| Compound | inhibition at 1 µM (DPP IV) [%] | inhibition at 10 µM (DPP IV) [%] | % Reduction Glucose [1] [%] | % Reduction Triglyceride [1] [%] |
| --- | --- | --- | --- | --- |
| O=C1COCC(Cc2ccc(Oc3ccc(/C=C4\SC(=O)NC4=O)cc3)cc2)N1 (stereo not shown) [Example 1, 5-[4-(4-{[5-oxomorpholin-3-yl]methyl}phenoxy)benzylidene]-1,3-thiazolidine-2,4-dione] | – | – | 41.6 | – |
| O=C1COCC(Cc2ccc(Oc3ccc(/C=C4\SC(=S)NC4=O)cc3)cc2)N1 (stereo not shown) [Example 2, 5-(4-{4-[(4-oxo-2-thioxo-1,3-thiazolidin-5-ylidene)methyl]phenoxy}benzyl)morpholin-3-one] | – | – | 42.6 | 44.4 |
| O=C1COCC(Cc2ccc(Oc3ccc(/C=C4\SC(=O)NC4=O)cc3Cl)cc2)N1 (stereo not shown) [Example 7, 5-(3-chloro-4-{4-[(5-oxomorpholin-3-yl)methyl]phenoxy}benzylidene)-1,3-thiazolidine-2,4-dione] | – | – | 44.5 | 60.9 |
| O=C1COCC(Cc2ccc(Oc3ccc(/C=C4/C(=O)Nc5ccccc54)cc3Cl)cc2)N1 (stereo not shown) [Example 9] | 6.3 | 7.5 | – | – |

Further lines, with some results ahead:

| inhibition at 1 µM (DPP IV) [%] | inhibition at 10 µM (DPP IV) [%] | Compound | % Reduction Glucose [1] [%] | % Reduction Triglyceride [1] [%] |
| --- | --- | --- | --- | --- |
| 12.1 | 9.1 | O=C1COCC(Cc2ccc(Oc3ccc(/C=C4/C(=O)Nc5ccccc54)cc3F)cc2)N1 (stereo not shown) [Example 15] | – | – |
| 7.3 | 11.8 | O=C1COCC(Cc2ccc(Oc3ccc(/C=C4\SC(=S)NC4=O)cc3C(F)(F)F)cc2)N1 (stereo not shown) [Example 18, 5-(4-{4-[(4-oxo-2-thioxo-1,3-thiazolidin-5-ylidene)methyl]-2-(trifluoromethyl)phenoxy}benzyl)morpholin-3-one] | – | – |
| 8.9 | 15.2 | CN1C(=O)COCC1Cc1ccc(Oc2ccc(/C=C3\SC(=O)NC3=O)cc2)cc1 (stereo not shown) [Example 19, 5-(4-{4-[(4-methyl-5-oxomorpholin-3-yl)methyl]phenoxy}benzylidene)-1,3-thiazolidine-2,4-dione] | – | – |
